From the supplement of paper PMC10307832

Assays:
Assay in all cases: relative viability (nuclei count vs DMSO), 5 days (fraction); higher = more cells survive
RU-SKI 43 + Palbociclib = compound: CC[C@@H](C)CNCC(=O)N1CCC2=C([C@@H]1COC3=CC=CC(=C3)C)C=CS2 [RU-SKI 43] + CC(=O)c1c(C)c2cnc(Nc3ccc(N4CCNCC4)cn3)nc2n(C2CCCC2)c1=O [Palbociclib] (partner 0.5 µM)
How it was run: (§1)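 After 5 days of treatment, lung cancer cells in 1536-well plates were fixed and stained in a single step (final 0.05% Triton X-100, 1% formaldehyde, 1 ug/ml Hoechst) and their nuclei counted on 4× images. Treatment had been applied by pin tool the day after seeding as one drug alone or as a fixed anchor-drug dose with five library-drug doses (not always all listed) in √10 steps. Relative viability is the nuclei count of treated wells divided by that of vehicle wells, and values are medians of duplicate plates.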

RU-SKI 43 + Phenformin = compound: CC[C@@H](C)CNCC(=O)N1CCC2=C([C@@H]1COC3=CC=CC(=C3)C)C=CS2 [RU-SKI 43] + N=C(N)NC(=N)NCCc1ccccc1 [Phenformin] (partner 250 µM)
How it was run: as §1

Irinotecan + Crizotinib = compound: CCc1c2c(nc3ccc(OC(=O)N4CCC(N5CCCCC5)CC4)cc13)-c1cc3c(c(=O)n1C2)COC(=O)[C@]3(O)CC [Irinotecan] + C[C@@H](Oc1cc(-c2cnn(C3CCNCC3)c2)cnc1N)c1c(Cl)ccc(F)c1Cl [Crizotinib] (partner 1 µM)
How it was run: as §1

MK-8033 + Bortezomib = compound: Cn1cc(-c2cnc3ccc4ccc(CS(=O)(=O)NCc5ccccn5)cc4c(=O)c3c2)cn1 [MK-8033] + CC(C)C[C@H](NC(=O)[C@H](Cc1ccccc1)NC(=O)c1cnccn1)B(O)O [Bortezomib] (partner 0.002 µM)
How it was run: as §1

Cell Line	relative viability (RU-SKI 43 + Palbociclib; first compound 0.1 µM)	relative viability (RU-SKI 43 + Palbociclib; first compound 0.3162 µM)	relative viability (RU-SKI 43 + Palbociclib; first compound 1 µM)	relative viability (RU-SKI 43 + Palbociclib; first compound 3.162 µM)	relative viability (RU-SKI 43 + Palbociclib; first compound 10 µM)	relative viability (RU-SKI 43 + Phenformin; first compound 0.1 µM)	relative viability (RU-SKI 43 + Phenformin; first compound 0.3162 µM)	relative viability (RU-SKI 43 + Phenformin; first compound 1 µM)	relative viability (RU-SKI 43 + Phenformin; first compound 3.162 µM)	relative viability (RU-SKI 43 + Phenformin; first compound 10 µM)	relative viability (Irinotecan + Crizotinib; first compound 0.6325 µM)	relative viability (Irinotecan + Crizotinib; first compound 2 µM)	relative viability (Irinotecan + Crizotinib; first compound 6.325 µM)	relative viability (Irinotecan + Crizotinib; first compound 20 µM)	relative viability (MK-8033 + Bortezomib; first compound 0.02 µM)	relative viability (MK-8033 + Bortezomib; first compound 0.06325 µM)	relative viability (MK-8033 + Bortezomib; first compound 0.2 µM)	relative viability (MK-8033 + Bortezomib; first compound 0.6325 µM)	relative viability (MK-8033 + Bortezomib; first compound 2 µM)
NCI-H522	1.22	1.08	1.18	1.29	0.977	0.663	0.746	0.749	0.647	0.684									
NCI-H358	0.129	0.152	0.15	0.128	0.128	0.305	0.432	0.402	0.436	0.271	0.497	0.431	0.484	0.139					
NCI-H1755	0.478	0.458	0.44	0.478	0.466	0.648	0.613	0.63	0.644	0.666	0.712	0.497	0.332	0.451	0.987	0.834	0.933	0.849	0.835
LCLC-103H	0.525	0.453	0.471	0.495	0.496	0.318	0.388	0.435	0.346	0.343	0.834	0.379	0.397	0.621	1.04	0.986	1.18	1.02	1.12
HOP-62	0.462	0.508	0.532	0.469	0.403	0.688	0.547	0.779	0.789	0.714	0.211	0.108	0.136	0.159	0.932	0.85	0.333	0.555	0.897
HCC-78	0.43	0.408	0.533	0.461	0.503	0.735	0.735	0.933	0.739	0.692	0.353	0.312	0.222	0.181	0.446	0.38	0.47	0.478	0.557
NCI-H650	0.344	0.312		0.338	0.337	0.479	0.37	0.509	0.425	0.475	0.543	0.436	0.258	0.235	0.858	0.745	0.737	0.794	0.886
NCI-H1563						0.607	0.653	0.706	0.668	0.61	0.865	0.882	0.865	0.344	0.951	0.823	0.857	0.833	0.838
ABC-1	0.517	0.824	0.719	0.866	0.636	0.189	0.239	0.227	0.255	0.213		0.785	0.297	0.154	0.307	0.263	0.319	0.337	0.313
Calu-6											0.548	0.525	0.226	0.114	0.959	1.03	1.04	0.955	1.01
EBC-1											0.191	0.165	0.203	0.151	0.532	0.489	0.597	0.563	0.309
NCI-H520	0.247	0.241	0.259	0.237	0.148	0.673	0.629	0.519	0.581	0.561	0.639	0.524	0.279	0.225	0.471	0.309	0.495	0.565	0.446
NCI-H322M	0.459	0.483	0.44	0.524	0.457	0.718	0.758	0.832	0.833	0.771	0.475	0.405	0.42	0.316	1.29	1.2	1.11	1.14	1.18
201T	0.367	0.329	0.368	0.361	0.361	0.48	0.437	0.464	0.443	0.442		0.888	0.52	0.388	1.13	1.09	1.08	1.07	1.12
RERF-LC-KJ	1.1	1.4	1.15	1	0.851	0.374	0.418	0.347	0.417	0.346	0.785	0.533	0.322	0.342	1.08	1.21	1.04	1.19	1.03
A549						0.186	0.16	0.156	0.113	0.143	0.621	0.511	0.143	0.0565					
NCI-H1648	0.284	0.26	0.257	0.304	0.271														
NCI-H1623						0.629	0.564	0.619	0.583	0.53									
NCI-H1651	0.522	0.533	0.532	0.537	0.542	0.351	0.418	0.363	0.342	0.277		0.693	0.479	0.135	0.988	0.868	0.968	0.999	1.02
NCI-H2405	0.504	0.603	0.551	0.576	0.503	0.37	0.371	0.413	0.379	0.358	0.788	0.779	0.355	0.274	1	0.961	0.932	0.771	1.03
NCI-H727		0.559	0.682	0.671	0.622	0.524	0.59	0.676	0.662	0.445	0.366	0.556	0.497	0.447	0.873	0.62	0.882	0.993	0.857
